Laboratory results taken from BindingDB's records for doi:10.1021/jm960441m (Upjohn, 1997).
pKi: −log10 of the molar value.

Biological target: T1, Dimer of Gag-Pol polyprotein [489-587] (Human immunodeficiency virus 1, UniProt P12497)
T1 construct: 489-587
Assay: Protease Inhibition Assay
Text: HIV-1 protease was purified and refolded from E. coli inclusion bodies. […] In the presence of HIV-l protease, the substrate is rapidly cleaved into two parts. The biotinylated amino terminal fragment binds to the avidin beads while the FITC-containing carboxy1 terminal fragment is removed through the membrane. […] The bound fluorescence is obtained by processing on an IDEXX Screen Machine. Determination of Ki values with this assay requires analysis under conditions in which substrate concentration resides substantially below Km and the inhibitor concentrations greatly exceeds the Ki value and the enzyme concentration.

SMILES | pKi | pKi (pH 5, 22 °C)
O=c1oc2c(c(O)c1C(c1cccc(NS(=O)(=O)c3ccc(F)cc3)c1)C1CC1)CCCCCC2 (stereo unspecified) | 8.51 | –
O=c1oc2c(c(O)c1C(c1cccc(NS(=O)(=O)c3ccc(Cl)c(Cl)c3Cl)c1)C1CC1)CCCCCC2 (stereo unspecified) [2,3,4-trichloro-N-{3-[cyclopropyl({4-hydroxy-2-oxo-2H,5H,6H,7H,8H,9H,10H-cycloocta[b]pyran-3-yl})methyl]phenyl}benzene-1-sulfonamide] | 8.06 | –
O=c1oc2c(c(O)c1C(c1cccc(NS(=O)(=O)c3cccc(Cl)c3Cl)c1)C1CC1)CCCCCC2 (stereo unspecified) [2,3-dichloro-N-{3-[cyclopropyl({4-hydroxy-2-oxo-2H,5H,6H,7H,8H,9H,10H-cycloocta[b]pyran-3-yl})methyl]phenyl}benzene-1-sulfonamide] | 8.12 | –
O=c1oc2c(c(O)c1C(c1cccc(NS(=O)(=O)c3ccc(Cl)cc3Cl)c1)C1CC1)CCCCCC2 (stereo unspecified) [2,4-dichloro-N-{3-[cyclopropyl({4-hydroxy-2-oxo-2H,5H,6H,7H,8H,9H,10H-cycloocta[b]pyran-3-yl})methyl]phenyl}benzene-1-sulfonamide] | 8.21 | –
O=c1oc2c(c(O)c1C(c1cccc(NS(=O)(=O)c3cc(Cl)ccc3Cl)c1)C1CC1)CCCCCC2 (stereo unspecified) [2,5-dichloro-N-{3-[cyclopropyl({4-hydroxy-2-oxo-2H,5H,6H,7H,8H,9H,10H-cycloocta[b]pyran-3-yl})methyl]phenyl}benzene-1-sulfonamide] | 7.13 | –
O=c1oc2c(c(O)c1C(c1cccc(NS(=O)(=O)c3c(Cl)cccc3Cl)c1)C1CC1)CCCCCC2 (stereo unspecified) [2,6-dichloro-N-{3-[cyclopropyl({4-hydroxy-2-oxo-2H,5H,6H,7H,8H,9H,10H-cycloocta[b]pyran-3-yl})methyl]phenyl}benzene-1-sulfonamide] | < 6.70 | –
O=c1oc2c(c(O)c1C(c1cccc(NS(=O)(=O)c3ccccc3Cl)c1)C1CC1)CCCCCC2 (stereo unspecified) [2-chloro-N-{3-[cyclopropyl({4-hydroxy-2-oxo-2H,5H,6H,7H,8H,9H,10H-cycloocta[b]pyran-3-yl})methyl]phenyl}benzene-1-sulfonamide] | – | 8.03
N#Cc1ccccc1S(=O)(=O)Nc1cccc(C(c2c(O)c3c(oc2=O)CCCCCC3)C2CC2)c1 (stereo unspecified) [2-cyano-N-{3-[cyclopropyl({4-hydroxy-2-oxo-2H,5H,6H,7H,8H,9H,10H-cycloocta[b]pyran-3-yl})methyl]phenyl}benzene-1-sulfonamide] | – | 8.13
O=c1oc2c(c(O)c1C(c1cccc(NS(=O)(=O)c3ccc(Cl)c(Cl)c3)c1)C1CC1)CCCCCC2 (stereo unspecified) [3,4-dichloro-N-{3-[cyclopropyl({4-hydroxy-2-oxo-2H,5H,6H,7H,8H,9H,10H-cycloocta[b]pyran-3-yl})methyl]phenyl}benzene-1-sulfonamide] | 8.39 | –
O=c1oc2c(c(O)c1C(c1cccc(NS(=O)(=O)c3cc(Cl)cc(Cl)c3)c1)C1CC1)CCCCCC2 (stereo unspecified) [3,5-dichloro-N-{3-[cyclopropyl({4-hydroxy-2-oxo-2H,5H,6H,7H,8H,9H,10H-cycloocta[b]pyran-3-yl})methyl]phenyl}benzene-1-sulfonamide] | 8.16 | –
O=c1oc2c(c(O)c1C(c1cccc(NS(=O)(=O)c3cccc(Br)c3)c1)C1CC1)CCCCCC2 (stereo unspecified) [3-bromo-N-{3-[cyclopropyl({4-hydroxy-2-oxo-2H,5H,6H,7H,8H,9H,10H-cycloocta[b]pyran-3-yl})methyl]phenyl}benzene-1-sulfonamide] | – | 8.59
O=c1oc2c(c(O)c1C(c1cccc(NS(=O)(=O)c3cccc(Cl)c3)c1)C1CC1)CCCCCC2 (stereo unspecified) [3-chloro-N-{3-[cyclopropyl({4-hydroxy-2-oxo-2H,5H,6H,7H,8H,9H,10H-cycloocta[b]pyran-3-yl})methyl]phenyl}benzene-1-sulfonamide] | – | 8.57
[N-]=[N+]=Nc1ccc(S(=O)(=O)Nc2cccc(C(c3c(O)c4c(oc3=O)CCCCCC4)C3CC3)c2)cc1 (stereo unspecified) [4-azido-N-{3-[cyclopropyl({4-hydroxy-2-oxo-2H,5H,6H,7H,8H,9H,10H-cycloocta[b]pyran-3-yl})methyl]phenyl}benzene-1-sulfonamide] | 8.59 | –
O=c1oc2c(c(O)c1C(c1cccc(NS(=O)(=O)c3ccc(Br)cc3)c1)C1CC1)CCCCCC2 (stereo unspecified) [4-bromo-N-{3-[cyclopropyl({4-hydroxy-2-oxo-2H,5H,6H,7H,8H,9H,10H-cycloocta[b]pyran-3-yl})methyl]phenyl}benzene-1-sulfonamide] | 8.68 | –
O=c1oc2c(c(O)c1C(c1cccc(NS(=O)(=O)c3ccc(Cl)cc3)c1)C1CC1)CCCCCC2 (stereo unspecified) [4-chloro-N-{3-[cyclopropyl({4-hydroxy-2-oxo-2H,5H,6H,7H,8H,9H,10H-cycloocta[b]pyran-3-yl})methyl]phenyl}benzene-1-sulfonamide] | 8.60 | –
N#Cc1ccc(S(=O)(=O)Nc2cccc(C(c3c(O)c4c(oc3=O)CCCCCC4)C3CC3)c2)nc1 (stereo unspecified) [5-cyano-N-{3-[cyclopropyl({4-hydroxy-2-oxo-2H,5H,6H,7H,8H,9H,10H-cycloocta[b]pyran-3-yl})methyl]phenyl}pyridine-2-sulfonamide] | 9.00 | –

SMILES | pKi | pKi (pH 5, 22 °C)
O=c1oc2c(c(O)c1C(c1cccc(NS(=O)(=O)/C=C/c3ccccc3)c1)C1CC1)CCCCCC2 (stereo unspecified) [(E)-N-{3-[cyclopropyl({4-hydroxy-2-oxo-2H,5H,6H,7H,8H,9H,10H-cycloocta[b]pyran-3-yl})methyl]phenyl}-2-phenylethene-1-sulfonamide] | – | 8.52
O=c1oc2c(c(O)c1C(c1cccc(NS(=O)(=O)c3cccc4cccnc34)c1)C1CC1)CCCCCC2 (stereo unspecified) [N-[3-[Cyclopropyl(5,6,7,8,9,10-hexahydro-4-hydroxy-2-oxo-2H-cycloocta[b]pyran-3-yl)methyl]phenyl]-8-quinolinesulfonamide] | 8.72 | –
O=c1oc2c(c(O)c1C(c1cccc(NS(=O)(=O)Cc3ccccc3)c1)C1CC1)CCCCCC2 (stereo unspecified) [N-[3-[Cyclopropyl(5,6,7,8,9,10-hexahydro-4-hydroxy-2-oxo-2H-cycloocta[b]pyran-3-yl)methyl]phenyl]benzenemethanesulfonamide] | – | 7.89
O=c1oc2c(c(O)c1C(c1cccc(NS(=O)(=O)c3cscn3)c1)C1CC1)CCCCCC2 (stereo unspecified) [N-{3-[cyclopropyl({4-hydroxy-2-oxo-2H,5H,6H,7H,8H,9H,10H-cycloocta[b]pyran-3-yl})methyl]phenyl}-1,3-thiazole-4-sulfonamide] | 8.80 | –
O=c1oc2c(c(O)c1C(c1cccc(NS(=O)(=O)c3ccc(F)cc3F)c1)C1CC1)CCCCCC2 (stereo unspecified) [N-{3-[cyclopropyl({4-hydroxy-2-oxo-2H,5H,6H,7H,8H,9H,10H-cycloocta[b]pyran-3-yl})methyl]phenyl}-2,4-difluorobenzene-1-sulfonamide] | 8.39 | –
Cc1cccc(C)c1S(=O)(=O)Nc1cccc(C(c2c(O)c3c(oc2=O)CCCCCC3)C2CC2)c1 (stereo unspecified) [N-{3-[cyclopropyl({4-hydroxy-2-oxo-2H,5H,6H,7H,8H,9H,10H-cycloocta[b]pyran-3-yl})methyl]phenyl}-2,6-dimethylbenzene-1-sulfonamide] | < 6.70 | –
O=c1oc2c(c(O)c1C(c1cccc(NS(=O)(=O)c3ccccc3C(F)(F)F)c1)C1CC1)CCCCCC2 (stereo unspecified) [N-{3-[cyclopropyl({4-hydroxy-2-oxo-2H,5H,6H,7H,8H,9H,10H-cycloocta[b]pyran-3-yl})methyl]phenyl}-2-(trifluoromethyl)benzene-1-sulfonamide] | – | 7.68
O=c1oc2c(c(O)c1C(c1cccc(NS(=O)(=O)c3ccccc3F)c1)C1CC1)CCCCCC2 (stereo unspecified) [N-{3-[cyclopropyl({4-hydroxy-2-oxo-2H,5H,6H,7H,8H,9H,10H-cycloocta[b]pyran-3-yl})methyl]phenyl}-2-fluorobenzene-1-sulfonamide] | – | 7.96
O=c1oc2c(c(O)c1C(c1cccc(NS(=O)(=O)CCc3ccccc3)c1)C1CC1)CCCCCC2 (stereo unspecified) [N-{3-[cyclopropyl({4-hydroxy-2-oxo-2H,5H,6H,7H,8H,9H,10H-cycloocta[b]pyran-3-yl})methyl]phenyl}-2-phenylethane-1-sulfonamide] | – | 8.41
O=c1oc2c(c(O)c1C(c1cccc(NS(=O)(=O)c3ccc(C(F)(F)F)c(C(F)(F)F)c3)c1)C1CC1)CCCCCC2 (stereo unspecified) [N-{3-[cyclopropyl({4-hydroxy-2-oxo-2H,5H,6H,7H,8H,9H,10H-cycloocta[b]pyran-3-yl})methyl]phenyl}-3,4-bis(trifluoromethyl)benzene-1-sulfonamide] | 7.33 | –
O=c1oc2c(c(O)c1C(c1cccc(NS(=O)(=O)c3cccc(C(F)(F)F)c3)c1)C1CC1)CCCCCC2 (stereo unspecified) [N-{3-[cyclopropyl({4-hydroxy-2-oxo-2H,5H,6H,7H,8H,9H,10H-cycloocta[b]pyran-3-yl})methyl]phenyl}-3-(trifluoromethyl)benzene-1-sulfonamide] | – | 8.52
O=c1oc2c(c(O)c1C(c1cccc(NS(=O)(=O)c3cccc([N+](=O)[O-])c3)c1)C1CC1)CCCCCC2 (stereo unspecified) [N-{3-[cyclopropyl({4-hydroxy-2-oxo-2H,5H,6H,7H,8H,9H,10H-cycloocta[b]pyran-3-yl})methyl]phenyl}-3-nitrobenzene-1-sulfonamide] | – | 8.33
O=c1oc2c(c(O)c1C(c1cccc(NS(=O)(=O)c3ccc(OC(F)(F)F)cc3)c1)C1CC1)CCCCCC2 (stereo unspecified) [N-{3-[cyclopropyl({4-hydroxy-2-oxo-2H,5H,6H,7H,8H,9H,10H-cycloocta[b]pyran-3-yl})methyl]phenyl}-4-(trifluoromethoxy)benzene-1-sulfonamide] | 8.40 | –
O=c1oc2c(c(O)c1C(c1cccc(NS(=O)(=O)c3ccc(C(F)(F)F)cc3)c1)C1CC1)CCCCCC2 (stereo unspecified) [N-{3-[cyclopropyl({4-hydroxy-2-oxo-2H,5H,6H,7H,8H,9H,10H-cycloocta[b]pyran-3-yl})methyl]phenyl}-4-(trifluoromethyl)benzene-1-sulfonamide] | 8.21 | –
O=c1oc2c(c(O)c1C(c1cccc(NS(=O)(=O)c3ccc(I)cc3)c1)C1CC1)CCCCCC2 (stereo unspecified) [N-{3-[cyclopropyl({4-hydroxy-2-oxo-2H,5H,6H,7H,8H,9H,10H-cycloocta[b]pyran-3-yl})methyl]phenyl}-4-iodobenzene-1-sulfonamide] | 8.51 | –
